Laboratory results reported in patent publication US9725675B2, “Lipid-soluble formulations containing mixtures of antioxidants” (KEMIN INDUSTRIES, INC., priority 2003, dated 2017).
Several values for one entry are separate records, joined by “and”; a condition that tells them apart may be missing. Equal entries are not always repeated.

Test: Oil Stability Index (OSI) induction time, AOCS Official Method Cd 12b-92, at 98° C.
Settings: for OSI induction time (h) of formulations based on single antioxidants: 250 ppm of antioxidant formulation (20% active antioxidant in the carrier of Formulation 1), soybean oil, replicates 1-3; for OSI induction time of soybean oil stabilized with synthetic antioxidants: single antioxidants directly dissolved in soybean oil, 98° C., control 14.8 h
Source text: In order to evaluate the oxidative stability of an oil or fat sample an accelerated method is developed to speed up the oxidation process. […] This method is particularly suited to evaluate the effect of antioxidant stabilization of oils and fats.
Before oils and fats start to oxidize a resistance has to be overcome, after which the oxidation accelerates and becomes very rapid. The length of time before this rapid acceleration of oxidation is a measure of the resistance to oxidation and is commonly referred to as the ‘induction period’. In the Oil Stability Index (OSI method) the oxidative stability and the effect of antioxidant stabilization of oils and fats is determined. A stream of purified air is passed through a sample of oil, which is held in a thermostatic bath. In this experimental test the OSI was carried out at a temperature of 98° C. The effluent air from the oil or fat sample is then bubbled through a vessel containing deionized water. The conductivity of the water is continually monitored. The effluent air contains the volatile organic acids formed upon oxidizing the oil. The Oil Stability Index is defined as the point of maximum change of the rate of oxidation, or mathematically as the second derivative of the conductivity curve. As a consequence the induction point is a measure for the oxidative stability of the oil or fat system. The higher the induction point the higher the oxidative stability of the oil.

Row | Structure (SMILES) | OSI induction time (h) of formulations based on single antioxidants | OSI induction time of soybean oil stabilized with synthetic antioxidants (250 ppm) | OSI induction time of soybean oil stabilized with synthetic antioxidants (500 ppm) | OSI induction time of soybean oil stabilized with synthetic antioxidants (1000 ppm)
1 | CCCOC(=O)c1cc(O)c(O)c(O)c1 [Propyl gallate, propyl gallate] | 19.5 h and 21.5 h and 20.1 h | 35.8 h | 44.5 h | 53.1 h
2 | CCCCCCCCOC(=O)c1cc(O)c(O)c(O)c1 [Octyl gallate, octyl gallate] | 19.3 h (2×) and 19.5 h | 29.6 h | 38.6 h | 47.6 h
3 | O=C(O)c1cc(O)c(O)c(O)c1 [Gallic acid, gallic acid] | 21.6 h and 20.7 h and 22.0 h | 30.6 h | 41.8 h | 47.4 h
4 | Cc1cc(C(C)(C)C)c(O)c(C(C)(C)C)c1 [BHT, butylated hydroxyltoluene] | 15.5 h and 15.4 h and 15.0 h | 17.9 h | 20 h | –
5 | COc1ccc(O)c(C(C)(C)C)c1 [BHA, butylated hydroxyanisole] | 14.0 h and 14.2 h and 14.5 h | 14.0 h | 15.5 h | 21.5 h
